Measured values reported in patent US20030186946A1, “Suppression of cytotoxic protein conformers” (priority 2002, published 2003).
Like-named read-outs stand apart in the source and are kept apart here.

Experiments:
[1] = molecular target: T1, human amylin (Homo sapiens, UniProt P10997); test: Circular dichroism assay of amylin conformation; format: biochemical; set-up: Amylin is a 37-residue; C-terminally amidated peptide having a disulfide bridge between the cysteines at residues 2 and 7; purchased Bachem Calif; (Torrance, Calif.); host or cells: chemical synthesis; conditions: 200 μM Amaranth, approximately 4 μM human amylin, 4% HFIP (FIG. 9F)
T1 sequence (P10997 34-70 limits assumed): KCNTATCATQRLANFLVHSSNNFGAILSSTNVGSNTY
Description: Preparation of monomeric human amylin. Human amylin (batch 0551805) was obtained from Bachem (Torrence, Calif.). Stock solutions of amylin were prepared as described by Padrick and Miranker, 2002. Human amylin was solubilised in 6M guanidine HCL/50 mM potassium phosphate, pH 6.0, and loaded onto a C18 reversed-phase spin column (Harvard Biosciences). The column was then washed sequentially with 10% Acetonitrile, 0.2% trifluoroacetic acid and water. Monomeric amylin was eluted in 100% HFIP (hexafluoroisopropanol). This stock solution of amylin was then used for all Circular Dichroism experiments.
Circular Dichroism Assay. Circular dichroism spectra were measured on a Pi-Star 180 spectrometer (Applied Photophysics, Leatherhead, UK). Measurements were carried out in either 100% HFIP or 100 mM potassium chloride/50 mM potassium phosphate buffer (pH 7.4) and 2.5% HFIP at 25° C. A stock solution of monomeric human amylin was diluted into buffer to a final concentration of 2.5% HFIP and approximately 5 μM amylin to initiate amylin fibril formation. Spectra were collected at 1 nm intervals with a sample period of 25 μs and adaptive sampling of ±0.01 mdeg. Measurements were recorded immediately following addition of the human amylin stock solution to phosphate buffer in the presence or absence of Congo red or amaranth.
Human amylin (100 μg) was purified on a C18 spin column to give a stock solution in 100% HFIP as described in the methods. A spectrum of this stock solution was collected at 1 nm intervals in a 0.1 cm path length quartz cell (FIG. 9B). The stock solution of monomeric amylin in 100% HFIP was diluted to 2.5% HFIP in 100 mM potassium chloride/50 mM potassium phosphate buffer (pH 7.4). Human amylin concentration was approximately 5 μM. A spectrum was collected at 1 nm intervals in a 0.5 cm path length quartz cell in the absence (FIG. 9C) or presence of 20-fold molar excess of Congo red over human amylin (FIG. 9D). The stock solution of monomeric amylin in 100% HFIP was diluted to 4% HFIP in 100 mM potassium chloride/50 mM potassium phosphate buffer (pH 7.4) containing decreasing concentrations of Congo red as indicated in the Figure. Human amylin concentration was approximately 4 μM. Spectra were collected at 1 nm intervals in a 0.1 cm path length quartz cell (FIG. 9E). The stock solution of monomeric amylin in 100% HFIP was diluted to 4% HFIP in 100 mM potassium chloride/50 mM potassium phosphate buffer (pH 7.4) containing 200 μM Amaranth. Human amylin concentration was approximately 4 μM. Spectra were collected at 1 nm intervals in a 0.1 cm path length quartz cell (FIG. 9F).

[2] = molecular target: T1, human amylin; conditions: 10 μM thioflavin-T; for enhancement of thioflavin-T fluorescence by human amylin: 1200 μM compound (20-fold molar excess), 60 μM human amylin, over 24 h (FIG. 3)
Description: Thioflavin-T binding fluorescent assays. The effects of various polycyclic compounds on islet amyloid formation were measured by fluorescence spectroscopy, using a SpectraMAX Gemini XS Fluorescence Spectrophotometer (Molecular Devices Corporation, Sunnyvale, Calif.). Excitation and emission maxima were set to 450 nm and 510 nm respectively using a cutoff filter at 495 nm. Thioflavin-T binds to amylin fibrils, but not to monomeric amylin (Goldsbury et al., (1999), J. Mol. Biol., 285:33-39). […] The rate of amylin fibril formation was determined by following thioflavin-T fluorescence in the presence or absence of the potential inhibitory drug. […] Background fluorescence by acridine and acridine orange in the absence of amylin was subtracted from the experimental results. The control preparation contained human amylin and thioflavin-T in the absence of drug. The rate of fluorescence enhancement under these conditions was used to compare amylin fibril formation in the absence and presence of the drug. All other experimental conditions were identical.
Tri-prolyl amylin and rat amylin with thioflavin-T were also used as additional controls.
Each data point represents the mean±s.e.m of three separate reactions.
Effect of chlorpromazine on enhancement of thioflavin-Tfluorescence by human amylin (FIG. 2). Chlorpromazine (700 μM) (π) was incubated in 10 mM tris p H 7.4, with monomeric human amylin (70 μM) in the presence of thioflavin-T (10 μM). The fluorescence of the reaction was monitored over 24 hours as described in the methods. […] Each data point represents the mean±s.e.m of three separate reactions.
Effect of selected polycylic compounds on enhancement of thioflavin-Tfluorescence by human amylin (FIG. 3). Acridine, acridine orange, neutral red and methylene blue are selected examples of fused tricyclic ring compounds. […] Compound structures are shown adjacent to the appropriate graph. […] Fluorescence was monitored over 24 h as described in the Methods. A preparation containing human amylin and thioflavin-T only (▪), was included as a comparison in the absence of drug. […] Each data point represents the mean±s.e.m of three independent experiments.

[3] = molecular target: T1, human amylin; test: Radiolabelled precipitation assay of amylin fibril formation; format: biochemical; set-up: Amylin is a 37-residue; C-terminally amidated peptide having a disulfide bridge between the cysteines at residues 2 and 7; purchased Bachem Calif; (Torrance, Calif.); host or cells: chemical synthesis; conditions: 200 μM compound, 10 μM human amylin, 16,000×g (FIG. 8)
Description: Radiolabelled Precipitation Assays. The precipitation of radiolabelled human and rat amylin fibrils was used as an independent method to monitor assembly of amylin fibrils in the presence or absence of potential inhibitors of amylin fibril formation. […] Incubation mixtures were then centrifuged at either 16,000×g or 100,000×g, for 20 min, and the amount of [^3H]-human amylin remaining in the supernatant after centrifugation was determined (Beckman LSW 3801 β-counter, USA). Results were expressed as percentages of precipitable counts per minute, relative to total radioactivity in the supernatant.
Incorporation of [^3H]-amylin into amylin fibrils was followed for 24 hours. Human amylin fibrils were precipitated by centrifugation at either 16,000×g (FIG. 7A) or at 100,000×g (FIG. 7B). Rat amylin (10 μM) in the presence of [^3H]-rat amylin was used as a non-fibril forming control (♦) (FIG. 7A). The results are shown as the percentage of precipitable radioactive amylin, relative to total radioactivity in the supernatant at each time point. Each data point represents the mean±s.e.m of three separate reactions.
The incorporation of radioactive monomeric amylin into the human amylin fibrils as they form, can be used to measure the rate at which amylin fibrils form in the presence or absence of a potential inhibitory drug. Amylin fibrils can be separated from solution by centrifugation and the amount of radioactive amylin precipitated in the amylin fibril pellet is then used as a measure of the amount of amylin fibrils present at that time.
Thioflavin-T, although not polycyclic, is widely used in fluorescent assays to measure amylin fibril formation. Incorporation of radioactivity into the pellet of an aliquot of the reaction mixture centrifuged at 16,000×g, for 20 minutes was monitored over the time periods indicated. Rat amylin (10 μM) with [^3H]-rat amylin added was used as a non fibril forming control (∘) in each experiment. The results are shown as the percentage of precipitable radioactive amyloid, relative to total radioactivity in the supernatant at each time point. Each data point represents the mean±s.e.m of three separate experiments.

[4] = molecular target: T1, human amylin; test: Electron microscopy of human amylin fibrils; format: biochemical; set-up: Amylin is a 37-residue; C-terminally amidated peptide having a disulfide bridge between the cysteines at residues 2 and 7; purchased Bachem Calif; (Torrance, Calif.); host or cells: chemical synthesis
Description: Electron Microscopy. […] Samples were removed at various time points and prepared for electron microscopy. Aliquots (8 μl) of the amylin fibril preparations were absorbed to glow-discharged carbon-coated collodion film on 200-mesh copper grids for 1 min. Grids were blotted, washed twice in droplets of deionised water and stained with 2% (w/v) uranyl acetate. Grids were examined in a Phillips Technai transmission electron microscope operated at 120 kV.
Samples were removed at various time points and prepared for electron microscopy according to the procedure described in the methods.
Electron Microscopy of human amylin fibrils in the presence and absence of quinacrine (FIG. 5). A 100 fold molar excess of quinacrine was incubated with human amylin. Samples were removed at various time points and prepared for electron microscopy according to the procedure described in the methods.
Electron Microscopy of human amylin fibrils in the presence and absence of selected polycyclic compounds (FIG. 6). […] Samples were removed and prepared for electron microscopy as described in the Methods. All experiments were performed in triplicate and the pictures above are representative of at least 6 photographs taken at each magnification.

[5] = system: RINm5F cells; test: Cytotoxicity assay in RINm5F cells (calcein-AM / ethidium homodimer-1 staining); conditions: 30 μM peptide, 22 h, compared to vehicle control
Description: Cell Culture and Cytotoxicity Assays. RINm5F cells were cultured in RPMI 1640 medium containing 10% fetal bovine serum, 290 μg/mL L-glutamine, 100 IU/mL penicillin and 100 μg/mL streptomycin. Cells were plated at a density of 15×1 cells per well, incubated for 48 h, rinsed with PBS and placed in fresh medium containing Congo red. Freshly prepared human amylin in Milli-Q water, was preincubated with Congo red for 30 min, then added to the cell culture medium to give a final concentration of 30 μM. Cells were treated for 22 h with human amylin in the presence or absence of 100 μM Congo red. Cell viability was determined by double-staining with calcein-AM and ethidium homodimer-1. Green fluorescence of live cells and red fluorescence marking nuclei of dead cells were simultaneously visualized using a Zeiss Axiovert S100 microscope equipped with a Zeiss filter set # 09. Photographs were taken at 400× magnification using a Zeiss AxioCam digital camera.
A. Representative fluorescence micrograph of RINm5F cells treated with 30 μM human amylin for 22 h and stained with calcein-AM and ethidium homodimer-1 to show live cells (green) and dead cells (red). […] B. A representative micrograph of RINm5F cells treated with 30 μM human amylin and 100 μM Congo red stained as above. […] The percentage of live cells was determined for cells treated for 22 h with vehicle; 30 μM human amylin; 30 μM human amylin in the presence of 100 μM Congo red; or 30 μM rat amylin. Experiments were repeated independently 10 times except for human amylin plus Congo red (A+CR) which was repeated five times. Error bars represent the s.e.m of live and dead cell counts over 6-12 fields per condition.

O=S(=O)([O-])c1ccc2c(N=Nc3ccc(S(=O)(=O)[O-])c4ccccc34)c(O)c(S(=O)(=O)[O-])cc2c1.[Na+].[Na+].[Na+] [Amaranth]
effect on β-conformer formation of human amylin (circular dichroism) [1]: prevents formation of β-conformers and instead arrests the amylin peptide in an α-helical conformation

c1ccc2nc3ccccc3cc2c1 [acridine]
enhancement of thioflavin-T fluorescence by human amylin [2]: moderate reduction in thioflavin-T enhanced fluorescence
effect on precipitable amyloid formation [3]: no effects on amyloid formation

CN(C)CCCN1c2ccccc2Sc2ccc(Cl)cc21 [chlorpromazine]
inhibition of amylin fibril formation ([2]; 700 μM chlorpromazine, 70 μM human amylin, over 24 hours (FIG. 2)): approximately 60%
enhancement of thioflavin-T fluorescence by human amylin [2]: little inhibition of amylin fibril associated thioflavin-T fluorescence enhancement
morphology of human amylin fibrils (electron microscopy) ([4]; 1200 μM compound, 60 μM human amylin, 10 mM tris pH 7.4, 24 h (FIG. 6)): still formed characteristic amylin fibrils
effect on precipitable amyloid formation [3]: no effects on amyloid formation

CN(C)c1ccc2nc3ccc(N(C)C)cc3[s+]c2c1 [methylene blue]
enhancement of thioflavin-T fluorescence by human amylin [2]: no increase in thioflavin-T enhanced fluorescence
enhancement of thioflavin-T fluorescence by human amylin ([2]; listed as Methylene blue): complete inhibition
effect on precipitable amyloid formation [3]: no effects on amyloid formation
effect on precipitable amyloid formation ([3]; listed as Methylene blue): no effect

CCN(CC)CCCC(C)Nc1c2ccc(Cl)cc2nc2ccc(OC)cc12 (stereo not shown) [quinacrine]
rate of human amylin fibril formation (electron microscopy) ([4]; 7000 μM quinacrine, 70 μM human amylin, 1.5, 5 and 26 hours): appears to slow the rate of human amylin fibril formation
morphology of human amylin fibrils (electron microscopy) ([4]; 7000 μM quinacrine, 70 μM human amylin, 5 hours and 26 hours): large aggregates with few defined fibrils

Cc1ccc2c(c1)sc(-c1ccc(N(C)C)cc1)[n+]2C.[Cl-] [thioflavin-T]
effect on precipitable amyloid formation [3]: no effects on amyloid formation

human amylin
cytotoxicity of amylin peptide to RINm5F cells [5]: significant increase in cell death

rat amylin: synthetic rat amylin from Bachem; non-fibril forming control
cytotoxicity of amylin peptide to RINm5F cells [5]: not cytotoxic
